The values that follow come from the supplement of paper PMC10290057.

Where a name gives a salt, the structure may show the parent alone.

The test system of assay [1] is HCT116. Put plainly: AC50 cell viability (CellTiter-Glo); higher = less potent. The note with it: 48 h. On the technique in general: In ATP-based viability assays light output follows the ATP content of the culture.
For assay [2], the system named is HCT116. Put plainly: efficacy (fitted maximal change in viability relative to DMSO control); higher = less cytotoxic (negative = loss of viability). The conditions noted are these: 48 h.
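For AC50 cell viability (CellTiter-Glo) in this document: HCT116 colorectal carcinoma cells screened at five concentrations per compound, luminescent viability scaled between DMSO wells and empty wells on each plate, curves fitted per compound.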
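For efficacy (fitted maximal change in viability relative to DMSO control) in this document: Luminescence-based viability readout, five doses per compound, normalized against on-plate DMSO and empty-well controls, followed by dose-response curve fitting for every drug.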

As to `COc1ccc(N2C(=O)N(c3c(C)cccc3Cl)Cc3cnc(Nc4ccc(C5CCN(C)CC5)cc4OC)nc32)nc1` [YKL-05-099], the AC50 cell viability in the assay with HCT116 [1] stood at 10.5 µM. The efficacy in the assay on HCT116 [2] was -99.4%.

For `CN(C)c1ccc2cc(C(=O)N[C@@H](CCCNC(=N)CCl)C(=O)NCc3ccccc3)ccc2c1` [YW3-56], the AC50 cell viability in the assay with HCT116 [1] is 20.9 µM. For the same compound, the efficacy in the assay on HCT116 [2] is -56.2%.

With `FC(F)c1nc2ccccc2n1-c1nc(N2CCOCC2)nc(N2CCOCC2)n1` [ZSTK-474], in the assay with HCT116 [1], the AC50 cell viability was 0.742 µM. Besides, the efficacy with HCT116 [2] is -58.2%.

`CC1(CN2CCC(n3c(=O)[nH]c4ccccc43)CC2)OCc2ccccc2-n2cccc21` (centres undefined) [Zaldaride maleate] displayed an AC50 cell viability with HCT116 [1] of 20.9 µM. The efficacy with HCT116 [2] is -74.1%.

In the assay on HCT116 [1], `Cl.Cl.Cl.O[C@@H](COc1cccc2ncccc12)CN1CCN([C@@H]2c3ccccc3[C@@H]3[C@H](c4ccccc42)C3(F)F)CC1` [Zosuquidar trihydrochloride] gave an AC50 cell viability of 16.6 µM. Moreover, the efficacy in the assay with HCT116 [2] was -97%.

`CC1(C)CC\C2=C(/O1)C3=C(C=CC=C3)C(=O)C2=O` [beta-Lapachone] came in with an AC50 cell viability in the assay with HCT116 [1] of 14.8 µM. For the same compound, the efficacy in the assay with HCT116 [2] was -103%.

On to `CC1CCN(c2cc(N3CCN(C)CC3)ccc2NC(=O)c2cc(C#N)c[nH]2)CC1` [c-FMS Inhibitor], for which the AC50 cell viability with HCT116 [1] was determined as 7.42 µM. In addition, the efficacy with HCT116 [2] is -34%.
